In publication PMC9238271, “The quorum sensing peptide EntF* promotes colorectal cancer metastasis in mice: a new factor in the host-microbiome interaction” (BMC Biology, 2022):

Assay: In vitro metabolization of EntF: formation of EntF* in colon tissue homogenate
Assay type: in vitro ADME, C57BL/6 female mice
Protocol: Krebs-Henseleit (KH) buffer (Sigma-Aldrich, Belgium) was prepared by dissolving the powdered medium in 900 mL water while stirring. Once the powder was completely dissolved, 0.3790 g CaCl2•2H2O and 2.098 g NaHCO3 were added to the solution. NaOH or HCl was used to adjust the pH to 7.4. The solution was brought to final volume (1000 mL) with ultrapure water.
For the preparation of colon tissue homogenates for EntF in vitro metabolization study, colons were collected from two untreated C57BL/6 female mice after cervical dislocation. After cleaning and rinsing the organs with ice-cold KH buffer, colons were cut into small pieces and transferred into 15 mL tubes containing 5 mL ice-cold KH buffer. Colon tissues were homogenized for 1 min. Larger particles were allowed to sediment for about 30 min at 5 °C, and then approximately 2 mL of the middle layer of each tube was transferred into a 2 mL Eppendorf tube and stored at − 35 °C. Before use, the homogenate was diluted to a final protein concentration of 0.6 mg/mL.
To avoid the absorption of EntF* onto plasticware and glassware, all tubes and containers were coated with a BSA-based anti-adsorption solution before use.
Five hundred microliters of tissue homogenate were mixed with 400 μL of pre-warmed KH buffer. Then, 100 μL of KH buffer (blank) or 1 mg/mL EntF peptide solution (test) were added to the diluted homogenate and incubated at 37 °C. […] After centrifugation at 16,000g for 30 min at 5 °C, supernatants were analyzed by LC1-MS1 for EntF* quantification.
EntF* was detected and quantified on a Waters Acquity® UPLC H-class system, connected to a Waters Xevo™ TQ-S triple quadrupole mass spectrometer with electrospray ionization (operated in positive ionization mode). Autosampler tray and column oven were kept at 10 ± 5 °C and 60 ± 5 °C, respectively. Chromatographic separation was achieved on a Waters Acquity® UPLC BEH Peptide C18 column (300 Å, 1.7 μm, 2.1 mm × 100 mm). The mobile phases consisted of 93/2/5 water/acetonitrile/DMSO (V/V/V) containing 0.1% formic acid (mobile phase A) and 2/93/5 water/acetonitrile/DMSO (V/V/V) containing 0.1% formic acid (mobile phase B), and the flow rate was set to 0.5 mL/min. A 10-μL aliquot from each sample was injected. The gradient program started with 80% of mobile phase A for 1 min, followed by a linear gradient to 40% of mobile phase A for 3.5 min. Gradient was then changed to 14.2% mobile phase A at 5 min, followed by a 1 min equilibration, before starting conditions were applied. EntF* retention time was between 4.25 and 4.45 min.
An optimized capillary voltage of 3.00 kV, a cone voltage of 20.00 V, and a source offset of 50.0 V were used. Acquisition was done in the MRM mode. The selected precursor ion for EntF* was m/z 865.7 with two selected product ions at m/z 202.08 (36 eV, b2 fragment) as quantifier and m/z 315.17 (31 eV, b3 fragment) as qualifier.

[1] = Colon, Time 0, initial concentration EntF 31.82 µM
[2] = Colon, Time 1, initial concentration EntF 31.82 µM
[3] = Colon, Time 5, initial concentration EntF 31.82 µM
[4] = Colon, Time 10, initial concentration EntF 31.82 µM
[5] = Colon, Time 30, initial concentration EntF 31.82 µM
[6] = Colon, Time 60, initial concentration EntF 31.82 µM
[7] = Colon, Time 120, initial concentration EntF 31.82 µM
[8] = Colon, Time 180, initial concentration EntF 31.82 µM

**Q.** For `CC(C)C[C@@H]1NC(=O)[C@H](CO)NC(=O)[C@H](Cc2ccccc2)NC(=O)[C@H](C(C)C)NC(=O)[C@@H](NC(=O)[C@H](CCC(=O)O)NC(=O)[C@@H](NC(=O)[C@H](CC(C)C)NC(=O)[C@H](CC(N)=O)NC(=O)[C@@H](N)CO)C(C)C)CSSC[C@@H](C(=O)N[C@@H](CC(N)=O)C(=O)O)NC(=O)[C@H](CCCCN)NC(=O)[C@H](CCCCN)NC(=O)[C@H](Cc2ccccc2)NC1=O` (single isomer, unassigned) [EntF*], which “Stability of EntF* in Colon tissue” value (Colon tissue) is on record?
**A.** EntF* is stable in Colon tissue

**Q.** What about the “EntF* Conc” value [1] of the same compound?
**A.** 0.00 µM

**Q.** What about the “EntF* without metabolisation, Conc” value [1] of the same compound?
**A.** 0.00 µM

**Q.** What about the “EntF*/EntF %” value [1] of the same compound?
**A.** 0.00%

**Q.** And the “EntF* Conc” value [2]?
**A.** 0.0286 µM

**Q.** And the “EntF*/EntF %” value [2]?
**A.** 0.09%

**Q.** And the “EntF* Conc” value [3]?
**A.** 0.20 µM

**Q.** And the “EntF*/EntF %” value [3]?
**A.** 0.62%

**Q.** What about the “EntF* Conc” value [4] of the same compound?
**A.** 0.50 µM

**Q.** And the “EntF*/EntF %” value [4]?
**A.** 1.56%

**Q.** And the “EntF* Conc” value [5]?
**A.** 0.94 µM

**Q.** And the “EntF*/EntF %” value [5]?
**A.** 2.94%

**Q.** What about the “EntF* Conc” value [6] of the same compound?
**A.** 2.03 µM

**Q.** And the “EntF*/EntF %” value [6]?
**A.** 6.39%

**Q.** What about the “EntF* Conc” value [7] of the same compound?
**A.** 3.15 µM

**Q.** What about the “EntF*/EntF %” value [7] of the same compound?
**A.** 9.89%

**Q.** What about the “EntF* Conc” value [8] of the same compound?
**A.** 5.17 µM

**Q.** What about the “EntF*/EntF %” value [8] of the same compound?
**A.** 16.25%

**Q.** And the “formation rate of EntF* (from EntF) in colonic tissues” value (mouse colon tissue homogenate (0.6 mg/mL protein) 500 μL + 400 μL Krebs-Henseleit buffer pH 7.4 + 100 μL 1 mg/mL EntF, 37 °C, aliquots 0-180 min, LC1-MS1, mean ± SEM, n = 7)?
**A.** 0.11 ± 0.01 % min^−1

**Q.** What about the “Formation rate, Colon tissue, Average” value (mouse colon tissue homogenate, Krebs-Henseleit buffer pH 7.4, 37 °C, LC1-MS1, average of X1-X7) of the same compound?
**A.** 0.11 %*min-1

**Q.** And the “Formation rate, Colon tissue” value (mouse colon tissue homogenate, Krebs-Henseleit buffer pH 7.4, 37 °C, LC1-MS1, replicate X1)?
**A.** 0.0898 %*min-1

**Q.** And the “Formation rate, Colon tissue” value (mouse colon tissue homogenate, Krebs-Henseleit buffer pH 7.4, 37 °C, LC1-MS1, replicate X2)?
**A.** 0.1249 %*min-1

**Q.** What about the “Formation rate, Colon tissue” value (mouse colon tissue homogenate, Krebs-Henseleit buffer pH 7.4, 37 °C, LC1-MS1, replicate X3) of the same compound?
**A.** 0.1563 %*min-1

**Q.** What about the “Formation rate, Colon tissue” value (mouse colon tissue homogenate, Krebs-Henseleit buffer pH 7.4, 37 °C, LC1-MS1, replicate X4) of the same compound?
**A.** 0.0981 %*min-1

**Q.** And the “Formation rate, Colon tissue” value (mouse colon tissue homogenate, Krebs-Henseleit buffer pH 7.4, 37 °C, LC1-MS1, replicate X5)?
**A.** 0.1065 %*min-1

**Q.** And the “Formation rate, Colon tissue” value (mouse colon tissue homogenate, Krebs-Henseleit buffer pH 7.4, 37 °C, LC1-MS1, replicate X6)?
**A.** 0.0824 %*min-1

**Q.** And the “Formation rate, Colon tissue” value (mouse colon tissue homogenate, Krebs-Henseleit buffer pH 7.4, 37 °C, LC1-MS1, replicate X7)?
**A.** 0.0903 %*min-1
